Source: patent US6583150B1, “Pharmaceutical composition based on polyaromatic compounds” (Laboratorie L. Lafon, priority 1999, dated 2003)
Like-named read-outs stand apart in the source and are kept apart here.

Key:
[1] = Determination of the maximum tolerated dose (MTD); assay type: in vivo; settings: mouse, in vivo, ip; single intraperitoneal administration, survival over 14 days, B6D2F1/Jico mice
Protocol: (§1) The evaluation of the maximum tolerated dose was carried out on 4- to 6-week-old B6D2F1/Jico mice. […] The value of the MTD (expressed in mg/kg) is determined from observing the survival rate of the animals over a period of 14 days after a single administration of the product under consideration. The change in the weight of the animals is also monitored over this period.

[2] = tested on: 12 human tumor lines: U-87MG, U-373MG, SW 1088, T24, J82, HCT-15, LoVo, MCF7, T-47D, A549, A-427 and PC-3; test: MTT cytotoxicity test, panel of the 12 human tumor lines; assay type: cell-based; settings: read-out: average IC50
Protocol: (§2) The influence of the compounds of formulae I and II on neoplastic cells was evaluated using the MTT calorimetric test. The principle of the MTT test is based on the mitochondrial reduction by metabolically active live cells of the yellow-colored product MTT (3-(4,5-dimethylthiazol-2-yl)-2,5-diphenyltetrazolium bromide) to a blue-colored product, formazan. The amount of formazan thus obtained is directly proportional to the amount of live cells present in the culture well(s). This amount of formazan is measured by spectrophotometry.
(§3) The cell lines are maintained in monolayer culture at 37° C. in stoppered culture dishes containing 25 MM HEPES MEM (Minimum Essential Medium) base medium. This medium, which is suitable for growing a range of varied diploid or primary mammalian cells, is then supplemented: […]
(§4) with a an amount of 5% FCS (Fetal Calf Serum) decomplemented at 56° C. for 1 hour, with 0.6 mg/mL of L-glutamine, with 200 IU/mL of penicillin, with […] of streptomycin, with 0.1 mg/mL of gentamicin.
(§5) The 12 human cancer cell lines used were obtained from the American Type Culture Collection (ATCC, Rockville, Md., USA). These 12 cell lines are:
U-373MG (code ATCC: HTB-17) and U-87MG (code ATCC: HTB-14) which are two glioblastomas, SW1088 (code ATCC: HTB-12) which is an astrocytoma, A549 (code ATCC: CCL-185) and A-427 (code ATCC: HTB-53) which are two non-small-cell lung cancers, HCT-15 (code ATCC: CCL-225) and LoVo (code ATCC: CCL-229) which are two colorectal cancers, T-47D (code ATCC: HTB-133) and MCF7 (code ATCC: HTB-22) which are two breast cancers, J82 (code ATCC: HTB-1) and T24 (code ATCC: HTB-4) which are two bladder cancers, PC-3 (code ATCC: CRL-1435) which is a prostate cancer.
Experimentally: 100 μl of a cell suspension containing 200 000 to 50 000 (depending on the cell type used) cells/mL of culture medium are inoculated in flat-bottomed 96-well multi-well plates and are incubated at 37° C. under an atmosphere comprising 5% CO2 and 70% humidity. After incubating for 24 hours, the culture medium is replaced with 100 μl of fresh medium containing either the various test compounds at concentrations ranging from 10^−5 to 10^−10 M or the solvent used to dissolve the test products (control condition). After incubating for 72 hours under the above conditions, the culture medium is replaced with 100 μl of a yellowish solution of MTT dissolved at a rate of 1 mg/mL in RPMI 1640. The microplates are reincubated for 3 hours at 37° C. and then centrifuged for 10 minutes at 400×g. The yellowish solution of MTT is removed and the blue formazan crystals formed at the cellular level are dissolved in 100 μl of DMSO. The microplates are then agitated for 5 minutes. The intensity of the resulting blue coloration, and thus of the conversion of the yellow MTT product into blue formazan by the cells that are still alive at the end of the experiment is quantified by spectrophotometry using a DYNATECH IMMUNOASSAY SYSTEM machine at wavelengths of 570 nm and 630 nm corresponding, respectively, to the maximum absorption wavelengths of formazan and to the background noise. Software built into the spectrophotometer calculates the average optical density values and also the standard deviation (Std. Dev.) and standard error of mean (SEM) values.
The inhibitory activity on the cell growth of the compounds of formula I and of formula II on the different tumor cell lines was compared with that of the natural product meridine (CRL 8348). All of the compounds of formula I and of formula II show significant inhibitory activity on the cell proliferation of the 12 human tumor lines: U-87MG, U-373MG, SW 1088, T24, J82, HCT-15, LoVo, MCF7, T-47D, A549, A-427 and PC-3 with an inhibitory concentration 50 (IC50) which is between 10^−6 M and 10^−10M, depending on the compounds and the tumor lines tested. By way of example, the values of the concentrations flanking the IC50 which are obtained on the various cell lines are given in table II: […]

U-373MG = test: MTT cytotoxicity test, U-373MG; assay type: cell-based; settings: Homo sapiens, U373 MG, U-373MG glioblastoma, 72 hours, read-out: concentrations flanking the IC50
Protocol: as §2, §3, §4, §5
(§6) U-373MG (code ATCC: HTB-17) and U-87MG (code ATCC: HTB-14) which are two glioblastomas, Experimentally: 100 μl of a cell suspension containing 200 000 to 50 000 (depending on the cell type used) cells/mL of culture medium are inoculated in flat-bottomed 96-well multi-well plates and are incubated at 37° C. under an atmosphere comprising 5% CO2 and 70% humidity. […] The intensity of the resulting blue coloration, and thus of the conversion of the yellow MTT product into blue formazan by the cells that are still alive at the end of the experiment is quantified by spectrophotometry using a DYNATECH IMMUNOASSAY SYSTEM machine at wavelengths of 570 nm and 630 nm corresponding, respectively, to the maximum absorption wavelengths of formazan and to the background noise. […]

U-87MG = test: MTT cytotoxicity test, U-87MG; assay type: cell-based; settings: Homo sapiens, U-87MG glioblastoma, 72 hours, read-out: concentrations flanking the IC50
Protocol: as §2, §3, §4, §5, §6

MCF7 = test: MTT cytotoxicity test, MCF7; assay type: cell-based; settings: Homo sapiens, MCF7 breast cancer, 72 hours, read-out: concentrations flanking the IC50
Protocol: as §2, §3, §4
The 12 human cancer cell lines used were obtained from the American Type Culture Collection (ATCC, Rockville, Md., USA). These 12 cell lines are: […]

B6D2F1/Jico mice = test: Determination of the maximum tolerated dose (MTD); assay type: in vivo; settings: single intraperitoneal administration, survival over 14 days
Protocol: as §1

Row | Compound | MTD at 14 days [1] [mg/kg] | further results
1 | O=C1c2nccc(Cl)c2-c2nc3ccccc3c3ccnc1c23 [CRL 8242, 12-Chlorobenzo[b]pyrido[4,3,2-de][1,7]phenanthroline-8-one] | > 160 | –
2 | COc1ccnc2c1C(=O)c1c(-c3ccccc3[N+](=O)[O-])ccnc1C2=O [CRL 8243, 6-Methoxy-4-(2-nitrophenyl)pyrido[3,2-g]quinoline-5,10-dione] | > 160 | –
3 | O=C1c2nccc(Cl)c2C(=O)c2c(-c3ccccc3NC(=O)C(F)(F)F)ccnc21 [CRL 8250, 6-Chloro-4-(2-trifluoroacetamidophenyl)pyrido[3,2-g]-quinoline-5,10-dione] | 20 | –
4 | O=C(O)C(F)(F)F.O=C1c2nccc([N+](=O)[O-])c2-c2nc3ccccc3c3ccnc1c23 [CRL 8258, 12-Nitrobenzo[b]pyrido[4,3,2-de][1,7]phenanthroline-8-one Trifluoroacetate] | 40 | –
5 | O=C(O)C(F)(F)F.O=C1c2nccc(Br)c2-c2nc3ccccc3c3ccnc1c23 [CRL 8259, 12-Bromobenzo[b]pyrido[4,3,2-de][1,7]phenanthroline-8-one Trifluoroacetate] | 40 | –
6 | O=C1c2nccc(-c3ccccc3NC(=O)C(F)(F)F)c2C(=O)c2c([N+](=O)[O-])ccnc21 [CRL 8267, 6-Nitro-4-(2-trifluoroacetamidophenyl)pyrido[3,2-g]-quinoline-5,10-dione] | 20 | –
7 | O=C1c2nccc([N+](=O)[O-])c2-c2nc3ccccc3c3ccnc1c23 [CRL 8273, 12-Nitrobenzo[b]pyrido[4,3,2-de][1,7]phenanthroline-8-one] | > 80 | –
8 | COc1ccnc2c1-c1nc3ccccc3c3ccnc(c13)C2=O [CRL 8276, 12-Methoxybenzo[b]pyrido[4,3,2-de][1,7]phenanthroline-8-one] | 80 | IC50 ([2]; Homo sapiens): 2.1 nM; IC50 (U-373MG): < 0.1 nM; IC50 (U-87MG): < 0.1 nM; IC50 (MCF7): < 0.1 nM
9 | O=C1c2ncccc2C(=O)c2c(-c3ccccc3NC(=O)C(F)(F)F)ccnc21 [CRL 8277, 4-(2-Trifluoroacetamidophenyl)pyrido[3,2-g]quinoline-5,10-dione] | > 40 | IC50 ([2]; Homo sapiens): 12.5 nM
10 | O=C1c2nccc(Cl)c2C(=O)c2c(-c3ccccc3[N+](=O)[O-])ccnc21 [CRL 8296, 6-Chloro-4-(2-nitrophenyl)pyrido[3,2-g]quinoline-5,10-dione] | 80 | –
11 | Nc1ccnc2c1C(=O)c1c(-c3ccccc3[N+](=O)[O-])ccnc1C2=O [CRL 8300, 6-Amino-4-(2-nitrophenyl)pyrido[3,2-g]quinoline-5,10-dione] | 80 | –
12 | O=C1c2nccc(O)c2-c2nc3ccccc3c3ccnc1c23 [CRL 8348, meridine, reference compound] | > 160 | IC50 ([2]; Homo sapiens): 170 nM; IC50 (U-373MG): 100 nM
13 | CN(C)c1ccnc2c1C(=O)c1c(-c3ccccc3NC(=O)C(F)(F)F)ccnc1C2=O [CRL 8426, 6-(Dimethylamino)-4-(2-trifluoroacetamidophenyl)pyrido-[3,2-g]quinoline-5,10-dione] | > 160 | –
14 | CN(C)c1ccnc2c1-c1nc3ccccc3c3ccnc(c13)C2=O [CRL 8427, 12-Dimethylaminobenzo[b]pyrido[4,3,2-de][1,7]phenanthroline-8-one] | > 160 | –
15 | CC(=O)Nc1ccnc2c1C(=O)c1c(-c3ccccc3NC(=O)C(F)(F)F)ccnc1C2=O [CRL 8428, 6-(Acetamido)-4-(2-trifluoroacetamidophenyl)pyrido-[3,2-g]quinoline-5,10-dione] | > 160 | –
16 | O=C1c2nc(O)ccc2C(=O)c2c(-c3ccccc3NC(=O)C(F)(F)F)ccnc21 [CRL 8429, 8-Hydroxy-4-(2-trifluoroacetamidophenyl)pyrido[3,2-g]-quinoline-5,10-dione] | 40 | –
17 | O=C1c2nc(O)ccc2-c2nc3ccccc3c3ccnc1c23 [CRL 8432, 10-Hydroxybenzo[b]pyrido[4,3,2-de][1,7]phenanthroline-8-one] | > 160 | –
18 | cystodamine [reference compound] | – | IC50 ([2]; calculated from the cytotoxic activity on the 12 tumor lines studied): 100 nM; MTD (B6D2F1/Jico mice): >160 mg/kg
